Data published in US8889689B2, “Bifunctional metnase/intnase inhibitors and related compositions and methods of treatment of cancer” (STC.UNM, priority 2010, dated 2014).
Entries after “also recorded” stand apart in the source; their conditions may differ.

Tests used:
[1] = tested on: A549 lung cancer cells; assay: Colony formation assay, alone or in combination with cisplatin
[2] = tested on: KG-1 leukemia cells; assay: KG-1 cell survival and proliferation (trypan blue counts), alone or with VP-16; type: cell-based, human; details: KG-1 cells
From the text: KG-1 cells are a human acute myeloid leukemia cell line established from a patient with acute myelogenous leukemia that had evolved from an erythroleukemia. Cytotoxicity of etoposide, a semisynthetic derivative of podophyllotoxin that also is called Vepesid (Bristol; code designation VP-16-213, abbreviated VP-16), is mediated by its interaction with DNA topoisomerase II (Topo II), an ATP-dependent nuclear enzyme that regulates DNA topology by transiently breaking and rejoining double-stranded DNA to allow DNA strand passage. Under normal conditions, the formation of a DNA strand break by Topo II is followed by precise realignment and resealing of the broken ends.
The human myeloid cell line KG-1 was grown in RPMI1640 with 10% FBS. The small cell lung cancer cell line CRL5898 was grown in HITES medium (Dulbecco's medium:Ham's F12, 50:50 mix, Insulin 0.005 mg/ml Transferrin 0.01 mg/ml Sodium selenite 30 nM Hydrocortisone 10 nM beta-estradiol 10 nM HEPES 10 mM L-glutamine 2 mM (in addition to that in the base medium)). Both cell lines were seeded at 10,000 cells/ml in the appropriate medium in 6 well plates. The Chem Div compounds were resuspended as 5 mM stock solutions in DMSO. […] Cells were plated and treated in triplicate and counted daily for 4 days in trypan blue to assess survival and proliferation.

[3] = tested on: Raji leukemia cells; assay: Cytotoxicity / proliferation at varying concentrations vs vehicle control; type: cell-based
Protocol: (§1) In separate experiments, the bifunctional Metnase inhibitor, 4h-new3 (see FIGS. 4 and 43) and the monofunctional Metnase inhibitor 4h (FIG. 1 and FIG. 43), were tested at varying concentrations to determine cytotoxic activity in Raji leukemia eels and MCI-H929 myeloma cells. The compounds were tested against vehicle control at varying concentrations in the above-described cancer cell lines.

[4] = tested on: NCI-H929 myeloma cells; assay: as above; type: cell-based
Protocol: as §1

[5] = A549, compound constantly present, cisplatin present for a shorter period
[6] = A549, compound present for 24 hours at the beginning then removed

In the case of `Cn1c(CCCC(=O)N2CCN(c3cc4c(cc3F)c(=O)c(C(=O)O)cn4C3CC3)CC2)nc2cc(N(CCCl)CCCl)ccc21` [WW-01], the “cytotoxicity of compound compared with cisplatin” value [1, 5] is reported as “significantly greater activity than cisplatin” and the “effect against colony survival, in combination with cisplatin” value [1, 5] is reported as “especially active in combination with cisplatin at higher concentrations”.
With `O=C(O)c1cn(C2CC2)c2cc(N3CCN(C(=O)CCCc4ccc(N(CCCl)CCCl)cc4)CC3)c(F)cc2c1=O` [WW-10] the “cytotoxicity of compound compared with cisplatin” value ([1]; A549, compound present 24 hours, cisplatin at higher concentration, shorter period) was “greater colony forming cell cytotoxicity than did cisplatin present at a higher concentration”, the “effect against colony survival, compound alone” value [1, 6] was “significant dose dependent effect against colony survival” and the “effect against colony survival, in combination with cisplatin” value [1, 6] was “especially active in combination with cisplatin at higher concentrations; also recorded: significant dose dependent effect against colony survival”.
`CC(C)n1cc(C(=O)O)c(=O)c2ccccc21` [5483-0023] was tested, and the “cytotoxic activity / proliferation, compound on its own” value ([2]; compound alone) was “has cytotoxic activity on its own; also recorded: Decreases Proliferation of KG-1 Cells on its Own” and the “potentiation of cytotoxic activity of VP-16” value ([2]; in combination with VP-16) was “increases the cytotoxic activity of the anti-cancer drug VP-16; also recorded: Potentiates VP-16”.
In the case of `CC(C)n1cc(C(=O)O)c(=O)c2ccc(C(=O)c3ccc(CN(CCCl)CCCl)cc3)cc21` [4H_new3], the “level at which proliferation is decreased” value [3] is reported as “below 1 μM”, the “decrease of cancer cell proliferation compared with monofunctional inhibitor 4h” value ([3]; varying concentrations) is reported as “significantly more effective at decreasing cancer cell proliferation” and the “level at which proliferation is decreased” value [4] is reported as “below 1 μM”. The “decrease of cancer cell proliferation compared with monofunctional inhibitor 4h” value ([4]; varying concentrations) was “significantly more effective at decreasing cancer cell proliferation”.
